{"source": "ChEMBL document CHEMBL1155558", "about": "“New cyclic peptide and bisindolyl benzenoid metabolites from the sclerotia of Aspergillus sclerotiorum” (2000)", "test_system": "Spodoptera frugiperda", "assay": "Activity against Spodoptera frugiperda assessed as reduction in feeding rate at 50 ug/cotton leaf disk", "assay_type": "functional", "design": "scale not given: the % may be the effect or the level left", "data": [{"smiles": "CN1C(=O)[C@H](CCC(N)=O)NC(=O)CNC(=O)[C@H](Cc2ccccc2)N(C)C(=O)[C@H](Cc2ccccc2)NC(=O)CNC(=O)[C@@H]1Cc1ccccc1", "note": "[SCLERAMIDE]", "values": [{"measurement": "Activity", "value": 27, "unit": "%"}]}]}
